Test results: ChEMBL document CHEMBL1201862, “PubChem BioAssay data set” (2004)
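Grown in 96-well plates, cells were treated for 48 hours with each compound at five concentrations. Insufficient inhibition: endpoint recorded as highest concentration tested. GI50 = concentration required for 50% inhibition of growth.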 Active and inactive are the calls of the source. Cut-off read from the data, not from the text of the source: active = GI50 up to about 1.1 µM and inactive = higher.

Columns and labels:
Test in all cases: NCI-60 cell line screen, 48 h
SF-295 = tested on: SF-295
UACC-257 = tested on: UACC-257
COLO 205 = tested on: COLO 205
SR = tested on: SR
Malme-3M = tested on: Malme-3M
RPMI-8226 = tested on: RPMI-8226
HCT-116 = tested on: HCT-116
MCF7 = tested on: MCF7
SK-MEL-5 = tested on: SK-MEL-5
UO-31 = tested on: UO-31
CCRF-CEM = tested on: CCRF-CEM
LOX IMVI = tested on: LOX IMVI
PC-3 = tested on: PC-3
RXF 393 = tested on: RXF 393
SK-OV-3 = tested on: SK-OV-3
Hs-578T = tested on: Hs-578T
K562 = tested on: K562
SNB-75 = tested on: SNB-75
TK-10 = tested on: TK-10
ACHN = tested on: ACHN

SMILES	GI50 (SF-295)	GI50 (UACC-257)	GI50 (COLO 205)	GI50 (SR)	GI50 (Malme-3M)	GI50 (RPMI-8226)	GI50 (HCT-116)	GI50 (MCF7)	GI50 (SK-MEL-5)	GI50 (UO-31)	GI50 (CCRF-CEM)	GI50 (LOX IMVI)	GI50 (PC-3)	GI50 (RXF 393)	GI50 (SK-OV-3)	GI50 (Hs-578T)	GI50 (K562)	GI50 (SNB-75)	GI50 (TK-10)	GI50 (ACHN)
COc1ccc2c(c1)c1ccc3c(c1n2C)C(=O)C=CC3=O	24.3 µM (inactive)	10.9 µM (inactive)	9.75 µM (inactive)	0.813 µM (active)	7.76 µM (inactive)	2.17 µM (inactive)	5.42 µM (inactive)	2.45 µM (inactive)	19.3 µM (inactive)	11.4 µM (inactive)	0.455 µM (active)	8.83 µM (inactive)	12.8 µM (inactive)	5.35 µM (inactive)	29.2 µM (inactive)	8.09 µM (inactive)	1.22 µM (inactive)	31.7 µM (inactive)	7.76 µM (inactive)	6.24 µM (inactive)
COc1cc2c(cc1OC)C13CCN4C=C5CCOC6CC(=O)N2C1C6C5CC43 (centres undefined)	> 100 µM (inactive)	> 100 µM (inactive)	> 100 µM (inactive)	> 100 µM (inactive)	> 100 µM (inactive)	> 100 µM (inactive)	> 100 µM (inactive)	> 100 µM (inactive)	> 100 µM (inactive)	> 100 µM (inactive)	> 100 µM (inactive)	> 100 µM (inactive)	> 100 µM (inactive)	> 100 µM (inactive)	> 100 µM (inactive)	> 100 µM (inactive)	> 100 µM (inactive)	> 100 µM (inactive)	> 100 µM (inactive)	> 100 µM (inactive)
CN(C)/C=N/Cc1ccc2c(c1)OCO2	> 100 µM (inactive)	> 100 µM (inactive)	> 100 µM (inactive)	> 100 µM (inactive)	> 100 µM (inactive)	> 100 µM (inactive)	> 100 µM (inactive)	> 100 µM (inactive)	> 100 µM (inactive)	> 100 µM (inactive)	> 100 µM (inactive)	> 100 µM (inactive)	> 100 µM (inactive)	> 100 µM (inactive)	> 100 µM (inactive)	> 100 µM (inactive)	> 100 µM (inactive)	> 100 µM (inactive)	> 100 µM (inactive)	> 100 µM (inactive)
CCN(CC)CCOCCOCC1(c2ccc(Cl)c(Cl)c2)CCCCC1	5.83 µM (inactive)	2.88 µM (inactive)	4.41 µM (inactive)	11 µM (inactive)	5.33 µM (inactive)	2.51 µM (inactive)	5.82 µM (inactive)	6.34 µM (inactive)	2.19 µM (inactive)	5.12 µM (inactive)	2.99 µM (inactive)	7.08 µM (inactive)	11.2 µM (inactive)	4.26 µM (inactive)	11.6 µM (inactive)	2.96 µM (inactive)	2.82 µM (inactive)	7.64 µM (inactive)	9.38 µM (inactive)	15.2 µM (inactive)
O=S(=O)(O)c1c(Cl)c(Cl)c(O)c2ncccc12	7.06 µM (inactive)	14.9 µM (inactive)	9.95 µM (inactive)	6.3 µM (inactive)	10.4 µM (inactive)	10.6 µM (inactive)	5.56 µM (inactive)	5.04 µM (inactive)	9.68 µM (inactive)	7.08 µM (inactive)	4.01 µM (inactive)	2.19 µM (inactive)	10.8 µM (inactive)	19.3 µM (inactive)	13 µM (inactive)	20.2 µM (inactive)	7.57 µM (inactive)	14.3 µM (inactive)	12.5 µM (inactive)	7.33 µM (inactive)
Cc1oncc1/N=C1\C=C(O)C(=O)c2ccccc21	7.66 µM (inactive)	2.77 µM (inactive)	17 µM (inactive)	4.88 µM (inactive)	3.45 µM (inactive)	7.64 µM (inactive)	3.16 µM (inactive)	2.68 µM (inactive)	1.95 µM (inactive)	14.1 µM (inactive)	3.38 µM (inactive)	2.73 µM (inactive)	2.42 µM (inactive)	13.2 µM (inactive)	15.7 µM (inactive)	9.12 µM (inactive)	6.14 µM (inactive)	13.1 µM (inactive)	25.1 µM (inactive)	4.82 µM (inactive)
NC(CSS(=O)(=O)c1ccccc1)C(=O)O (centres undefined)	> 10 µM (inactive)	> 10 µM (inactive)	> 10 µM (inactive)	> 10 µM (inactive)	> 10 µM (inactive)	> 10 µM (inactive)	> 10 µM (inactive)	> 10 µM (inactive)	> 10 µM (inactive)	> 10 µM (inactive)	> 10 µM (inactive)	> 10 µM (inactive)	> 10 µM (inactive)	> 10 µM (inactive)	> 10 µM (inactive)	> 10 µM (inactive)	> 10 µM (inactive)	> 10 µM (inactive)	> 10 µM (inactive)	> 10 µM (inactive)
N#CC12CC3=C(N=C1NC1=C(CCc4ccccc41)C2)c1ccccc1CC3 (centres undefined)	0.984 µM (active)	17.6 µM (inactive)	1.73 µM (inactive)	0.255 µM (active)	1.71 µM (inactive)	0.993 µM (active)	1.95 µM (inactive)	0.594 µM (active)	3.74 µM (inactive)	3.45 µM (inactive)	0.745 µM (active)	1.42 µM (inactive)	2.12 µM (inactive)	3.4 µM (inactive)	2.67 µM (inactive)	4.83 µM (inactive)	0.317 µM (active)	1.64 µM (inactive)	4.61 µM (inactive)	6.59 µM (inactive)
CC(=O)NN(c1ccccc1)C1CCN(c2ccccc2)N1C(C)=O (centres undefined)	3.5 µM (inactive)	> 10 µM (inactive)	3.13 µM (inactive)	6.25 µM (inactive)	3.48 µM (inactive)	8.71 µM (inactive)	9.84 µM (inactive)	8.91 µM (inactive)	> 10 µM (inactive)	3.1 µM (inactive)	> 10 µM (inactive)	4.58 µM (inactive)	4 µM (inactive)	> 10 µM (inactive)	> 10 µM (inactive)	> 10 µM (inactive)	2.32 µM (inactive)	> 10 µM (inactive)	> 10 µM (inactive)	2.82 µM (inactive)
COC[C@@H](/N=C/C(C)(C)C)C(C)C	> 100 µM (inactive)	67.3 µM (inactive)	> 100 µM (inactive)	> 100 µM (inactive)	> 100 µM (inactive)	> 100 µM (inactive)	> 100 µM (inactive)	> 100 µM (inactive)	> 100 µM (inactive)	> 100 µM (inactive)	> 100 µM (inactive)	> 100 µM (inactive)	> 100 µM (inactive)	> 100 µM (inactive)	> 100 µM (inactive)	> 100 µM (inactive)	> 100 µM (inactive)	> 100 µM (inactive)	72.1 µM (inactive)	> 100 µM (inactive)
C(/C=N/N=C1NCCN1)=N\N=C1NCCN1	> 100 µM (inactive)	> 100 µM (inactive)	> 100 µM (inactive)	> 100 µM (inactive)	> 100 µM (inactive)	> 100 µM (inactive)	> 100 µM (inactive)	> 100 µM (inactive)	> 100 µM (inactive)	> 100 µM (inactive)	> 100 µM (inactive)	> 100 µM (inactive)	> 100 µM (inactive)	> 100 µM (inactive)	> 100 µM (inactive)	> 100 µM (inactive)	17.8 µM (inactive)	47.3 µM (inactive)	–	> 100 µM (inactive)
C/C(=N\O)c1cccc(Nc2nc3ccccc3c3occc23)c1	8.83 µM (inactive)	< 0.01 µM (active)	12.9 µM (inactive)	5.81 µM (inactive)	14.4 µM (inactive)	7.06 µM (inactive)	12.3 µM (inactive)	15 µM (inactive)	13.6 µM (inactive)	0.0303 µM (active)	8.02 µM (inactive)	13.6 µM (inactive)	12.1 µM (inactive)	5.19 µM (inactive)	15 µM (inactive)	12.1 µM (inactive)	7.85 µM (inactive)	16.2 µM (inactive)	13 µM (inactive)	10.3 µM (inactive)
CCC(/C=C/C1OC(=O)C=CC1C)=C\C(C)C/C=C/C(C)=C/C(C)C(=O)C(C)C(O)C(C)C/C(C)=C/C(=O)O (centres undefined)	0.757 µM (active)	1.62 µM (inactive)	3.69 µM (inactive)	< 1e-06 µM (active)	1.44 µM (inactive)	1.37 µM (inactive)	1.17 µM (inactive)	1.03 µM (active)	4.88e-05 µM (active)	2.35 µM (inactive)	0.895 µM (active)	< 1e-06 µM (active)	1.27e-05 µM (active)	1.13 µM (inactive)	3.11 µM (inactive)	1.44e-05 µM (active)	1.02 µM (active)	1.91 µM (inactive)	9.4e-05 µM (active)	7.4e-06 µM (active)
COc1ccc2c(=O)c(-c3cc(OC)c(OC)cc3OC)coc2c1	1.66 µM (inactive)	11.3 µM (inactive)	3.32 µM (inactive)	1.27 µM (inactive)	4.54 µM (inactive)	2.35 µM (inactive)	2.28 µM (inactive)	0.778 µM (active)	1.55 µM (inactive)	34 µM (inactive)	1.56 µM (inactive)	5.51 µM (inactive)	4.16 µM (inactive)	2.45 µM (inactive)	3.02 µM (inactive)	1.98 µM (inactive)	1.11 µM (active)	2.26 µM (inactive)	31.5 µM (inactive)	> 82.8 µM (inactive)
